In US20090226494A1, “PATHOGEN - CONTROLLING PRODUCTS” (priority 2005, published 2009):

What was measured:
[1] = tested on: A431 human skin cell line; experiment: Hand gel cytotoxicity, SRB assay; type: cell-based; details: 10% concentration (highest), 24 hours
Description: Methods: The human squamous epithelial cell line A431 was cultured in RPMI 1640 medium supplemented with 10% FCS, 2 g/L sodium bicarbonate and 2 mM L-glutamine (complete medium), in 75 cm^2 tissue culture flasks in a humidified incubator at 37° C. with a 5% CO2 in air atmosphere. For the cytotoxicity experiments, A431 cells were plated into the wells of flat-bottom 96 well plates at 5×10^4 cells per well in 200 μl of complete medium and allowed to grow to confluence. On the day of the experiment the depleted culture medium was aspirated and replaced with 100 μl of fresh complete medium. Samples of the hand gels were diluted in complete medium to double the concentrations shown in the Figure and 100 μl of each samples was added to the cells which were then cultured for a further 24 hours. After microscopic examination, the cells were fixed and stained to quantitatively determine cytotoxicity as described below. The sulforhodamine B (SRB) cytotoxicity assay was developed and validated at the National Cancer Institute. […] After washing twice with tap water the remaining stain was dissolved in 10 mM Tris base and the optical density (O.D.) of the wells was measured on a Dynatech Multiplate ELISA reader at 540 nm. The percent cell survival was calculated by dividing the test O.D. by control O.D. and multiplying by 100.

MRSA = experiment: Time kill curves in RPMI-1460 medium; type: cell-based, Staphylococcus aureus; details: 20 and 150 ppm
HT-29 cells = experiment: Sulforhodamine (SRB) cytotoxicity assay and microscopy; type: cell-based, human; details: 24 and 48 hours
From the text: (§1) The three copper-containing antimicrobial solutions—CuPC33, CuAL42 and CuWB50—were provided and each contained 30.43 g/L of copper ion. […] Two human cell lines were used for this example: HT-29, an intestinal epithelial cell line, and U937, a monocytic lymphoma. […] After examination by microscopy the cells were then fixed and stained to quantitatively determine cytotoxicity using a sulforhodamine (SRB) cytotoxicity assay, developed and validated at the National Cancer Institute. […] All test cultures were in triplicate.

U937 cells = experiment: as above; type: cell-based, human; details: 24 and 48 hours
From the text: as §1

ACCB = details: 40 and 150 ppm

| SMILES | reduction of cell survival / cells killed [1] | activity in time kill curves (MRSA) | cytotoxicity (HT-29 cells; 1-100 ppm, 5% or 25% FCS) | cytotoxicity (HT-29 cells; 1000 ppm) | cytotoxicity (U937 cells; 1-100 ppm, 5% or 25% FCS) | cytotoxicity (U937 cells; 1000 ppm) | activity in time kill curves (ACCB) |
| --- | --- | --- | --- | --- | --- | --- | --- |
| CCO [ethanol] | around 50% | – | – | – | – | – | – |
| O=S(=O)([O-])[O-].[Cu+2] [copper sulphate] | – | some activity but the bacteria recovered | not significantly cytotoxic | very toxic | not significantly cytotoxic | very toxic | little initial activity but the bacteria recovered |
